Results published in patent US20210115401A1, “Methods and Materials for the Generation of Regulatory T Cells” (LIFE TECHNLOGIES AS, priority 2006, published 2021).

Test system: CD4+ T cells
Experiment: Surface marker (CD4, CD25, CXCR3) and intracellular FOXP3 analysis of expanded CD4+ T cells
Type: cell-based
Procedure: 1) Isolate CD4+ T cells from peripheral blood or leukopheresis products by the use of Dynal® CD4 Positive isolation kit, Dynal® CD4 Negative Isolation kit, Dynabeads® MyPure™ CD4 T cell kit, or CD4 Microbeads MACS®.
2) Stimulate 1.5×10^6 CD4+ T cells with anti-CD3/CD28 Dynabeads (3:1 bead: T cell ratio) in X-vivo medium with 1000 U/ml IL-4 (optional), 20 U/ml IL-2 and 1 μM final concentration of Rapamycin. Total medium volume should be 1.5 ml per 1.5×10^6 CD4+ T cells in a 24 well plate. The protocol can be scaled up.
3) On day 2, add a 10× concentrate that contains 10,000 U/ml IL-4 (optional) and […]. Add this in a volume that is 10% of the initial culture volume.
4) On day 4, add the cytokine concentrate similar to day 2.
5) On day 6, add the 10× cytokine concentrate again and take an aliquot to count the cells. This is the first time that the culture should be disturbed. Based on the count adjust the cell concentration to 1×10^6 CD4 cell/ml. Split wells and add culture medium containing Rapamycin, 1000 U/ml IL-4 (optional), 20 U/ml IL-2 to maintain cell concentration at 0.5×10^6 cells/ml.
6) From day 7 to day 12 count the cells daily. Split wells and add culture medium containing Rapamycin, 1000 U/ml IL-4 (optional), 20 U/ml IL-2 to maintain the cell concentration at 0.5×10^6 cells/ml. On day 12 the beads are removed using a magnet.
7) On day 14-15 the cells can be analyzed for surface marker expression and functional properties.
CD4+ T cells were isolated from peripheral blood by negative and/or positive isolation as described in Example 1. After expansion with IL-2, +/−IL-4, CD3/CD28 Dynabeads®, with or without Rapamycin the expanded cells were analyzed for various surface markers (CD4, CD25, CD62L, CRTh2, CCR4, CXCR3, CCR7) and for intracellular FOXP3 expression and cytokine secretion. Suppressive capacity was analyzed in standard functional assays as described below.

For `CO[C@H]1C[C@@H]2CC[C@@H](C)[C@@](O)(O2)C(=O)C(=O)N2CCCC[C@H]2C(=O)O[C@H]([C@H](C)C[C@@H]2CC[C@@H](O)[C@H](OC)C2)CC(=O)[C@H](C)/C=C(\C)[C@@H](O)[C@@H](OC)C(=O)[C@H](C)C[C@H](C)/C=C/C=C/C=C/1C` [Rapamycin], the “expanded cells expressing high levels of CD25” value (CD4+ T cells expanded with CD3/CD28 Dynabeads, IL-2, +/−IL-4 and Rapamycin) was “Approximately 70%”, the “CD4+CD25+ T cells among expanded cells (flow cytometry, FIG. 2)” value (CD4+ T cells expanded with rapamycin, 20% in the absence of rapamycin) was 80% and the “cells expressing FOXP3 after expansion” value (after expansion with or without Rapamycin, freshly isolated CD4+ T cells 10%) was 10%.
